Results: US10118954B2, “Apelin analogues” (University of Ulster, priority 2014, dated 2018)

Columns and labels:
[1] = Degradation of apelin peptides by plasma from fasted normal NIH Swiss mice (rp-HPLC, MALDI-TOF MS); assay type: in vitro ADME
Procedure: Degradation of Apelin Peptides by Plasma from Fasted Normal NIH Swiss Mice […] The enzymatic reaction was stopped by adding 50 μl of 10% TFA (0.1% v/v; Sigma-Aldrich Ltd, (Poole, Dorset, UK) and frozen at -20° C. until separation. The terminated reaction products were then applied to an analytical Vydac C-8 column (4.6×150 mm; Phenomenex, Macclesfield, Cheshire, UK) for rp-HPLC analysis. The absorbance was monitored at 214 nm using a […] UV 2000 detector (Thermoquest Limited, Manchester, UK) and the traces were recorded by Thermo Electron ChromQuest data collection software (version 4). HPLC peak fractions were collected manually and subjected to MALDI-TOF mass spectrometry for peptide identification. Degradation profile of various apelin-13 related analogues: plasma incubations (4 h) were separated on a Vydac C-8 analytical HPLC column and all peaks were collected prior to analysis by MALDI-TOF mass spectrometry. Degradation fragments, actual molecular weights (Mr) and retention times (RT) are shown. Theoretical molecular weights of each fragment are shown in brackets. […] Degradation fragments, theoretical molecular weights (Mr) and retention times (RT) are shown. Theoretical molecular weights of each fragment are shown in brackets.

[2] = test system: NIH Swiss mice fed a high-fat diet for 150 days; experiment: Acute and delayed i.p. glucose tolerance test, blood glucose and plasma insulin; assay type: in vivo
Procedure: Plasma glucose and plasma insulin concentrations were measured prior to and after i.p. administration of glucose alone (18 mmol/kg body weight), or in combination with apelin analogues (25 nmol/kg body weight) in 18 h fasted mice fed a high-fat diet for 150 days. Values represent mean±SEM for eight mice (n=8). *P<0.05, **P<0.01 and ***P<0.001 compared to glucose alone. FIG. 6 illustrates effect of i.p. administration of glucose alone (18 mmol/kg body weight), ([…])apelin-13 and ([…])apelin-13 alone or in combination (each 25 nmol/kg body weight) on (A) blood glucose and (B) plasma insulin in 18 h fasted mice fed a high-fat diet for 150 days. Values represent mean±SEM for eight mice (n=8). *p<0.05 and **p<0.01 compared to glucose alone, ^+P<0.05 compared to ([…])apelin-13, ^∇P<0.05 and ^∇∇P<0.01 compared to ([…])apelin-13. FIG. 10 illustrates tests conducted 2 h after administration of apelin related analogues (25 nmol/kg body wt) in 18 h fasted mice fed a high-fat diet for 150 days. (A) Blood glucose and (B) plasma insulin was measured before and after i.p. administration of glucose (18 mmol/kg body wt) alone or in combination with apelin analogues. Values represent mean±SEM for eight mice (n=8). *P<0.05 and **P<0.01 compared to glucose alone. FIG. 11 illustrates tests conducted 8 h after administration of apelin related analogues (25 nmol/kg body wt) in 18 h fasted mice fed a high-fat diet for 150 days. (A) Blood glucose and (B) plasma insulin was measured before and after i.p. administration of glucose (18 mmol/kg body wt) alone or in combination with apelin analogues. Values represent mean±SEM for eight mice (n=8). *P<0.05 and **P<0.01 compared to glucose alone. FIG. 12 illustrates acute effects of fatty acid modified apelin analogues on glucose-lowering and insulin release in high fat fed Swiss NIH mice with dietary-induced diabetes. (A) Blood glucose and (B) plasma insulin concentrations were measured prior to and after i.p. administration of glucose alone (18 mmol/kg body weight), or in combination with apelin analogues (25 nmol/kg body weight) in 18 h fasted mice fed a high-fat diet for 150 days. Values represent mean±SEM for eight mice (n=8). *P<0.05, compared to glucose alone. FIG. 13 illustrates tests conducted 16 h after administration of fatty acid apelin analogues (25 nmol/kg body wt) in mice fed a high-fat diet for 150 days. (A) Blood glucose and (B) plasma insulin was measured before and after i.p. administration of glucose (18 mmol/kg body wt) alone or in combination with apelin analogues. Values represent mean±SEM for eight mice (n=8). *P<0.05, **P<0.01 and ***P<0.001 compared to glucose alone. NIH Swiss mice (Harlan UK Ltd., Blackthorne, UK) were derived from a nucleus colony obtained from the National Institute of Health, Bethesda, Md., USA. One group of mice were maintained on a standard rodent diet (10% fat, 30% protein, 60% carbohydrate; percent of total energy 12.99 kJ/g, Trouw Nutrition, Cheshire, UK) and used as a model of normal glycaemia. Other NIH Swiss mice were maintained on a high fat diet (45% fat, 20% protein, 35% carbohydrate; percent of total energy 26.15 […], UK) from 8 weeks of age for 150 days to produce a model of diet induced obesity-diabetes. […] All mice were housed in an air-conditioned room maintained at 22±2° C. with a 12 h light: 12 h dark cycle (08:00-20:00 h), were singly caged, and selected for experimental groups according to body weight and non-fasted blood glucose. Drinking water and diet were freely available. All animal studies were performed in accordance with the UK Animals (Scientific Procedures) Act 1986. For acute in vivo studies, blood samples were collected from the cut tip of the tail vain of fasted, conscious mice into fluoride/heparin coated glucose microcentrifuge tubes (Sarstedt, Germany) immediately prior to (t=0) and at 15, 30, 60 and 105 min following i.p. injection of glucose ([…]).

[3] = test system: high fat fed NIH Swiss mice; experiment: 28 day long-term study of fatty acid apelin analogues, once daily i.p. administration; assay type: in vivo
Text: NIH Swiss mice (Harlan UK Ltd., Blackthorne, UK) were derived from a nucleus colony obtained from the National Institute of Health, Bethesda, Md., USA. One group of mice were maintained on a standard rodent diet (10% fat, 30% protein, 60% carbohydrate; percent of total energy 12.99 kJ/g, Trouw Nutrition, Cheshire, UK) and used as a model of normal glycaemia. Other NIH Swiss mice were maintained on a high fat diet (45% fat, 20% protein, 35% carbohydrate; percent of total energy 26.15 kJ/g; Dietex, Essex, UK) from 8 weeks of age for 150 days to produce a model of diet induced obesity-diabetes. […] All mice were housed in an air-conditioned room maintained at 22±2° C. with a 12 h light: 12 h dark cycle (08:00-20:00 h), were singly caged, and selected for experimental groups according to body weight and non-fasted blood glucose. Drinking water and diet were freely available. All animal studies were performed in accordance with the UK Animals (Scientific Procedures) Act 1986.
For another 28 day long-term study of selected fatty acid apelin analogues administered once daily, normal control NIH Swiss (n=8) and high-fat fed NIH Swiss (n=8) were grouped and received once daily i.p. injections of saline vehicle (0.9% NaCl (w/v)) at 17:00 h over a 4 day run-in period. Following the run-in period, normal control (n=8) and high-fat fed mice (n=8) received once daily (17:00 h) i.p. administration of saline vehicle (0.9% NaCl (w/v)) for 28 days. Additional groups of high-fat fed mice (n=8) received once daily i.p. injections of (Lys^8gluPal)apelin-13-amide, pGlu(Lys^8gluPal)apelin-13-amide or liraglutide (each at 25 nmol/kg bw) over a 28 day treatment period.
Food intake, body weight, blood glucose and plasma insulin were monitored at intervals of 2-3 days throughout the run-in and 28 day treatment period. Blood samples for glucose and plasma insulin measurement were collected at intervals throughout the study from the cut tail vein of conscious mice. Following the 28 day treatment period, oral, i.p. and meal test glucose tolerance ([…].), and insulin sensitivity (25 U/kg bw) tests were performed. Glucose was measured using an Ascensia Contour meter and blood was collected and processed for plasma insulin analysis by radioimmunoassay. Body weight and fat mass was also assessed using the PIXImus DEXA scanner whilst energy expenditure, intake, food intake and feeding bouts were assessed using the CLAMS metabolic chamber. HbA1c was analysed post 28 days using Bayer A1C Now^+ Multi Test meter. Lipid profile test was obtained by using the iLab analyser. Cholesterol, triglyceride and HDL-cholesterol levels were measured, in plasma (3 μl), using the iLab analyser. LDL-cholesterol levels were obtained using the Friedewald equation=total cholesterol−HDL−(triglycerides/3).

[4] = NIH Swiss, mouse, plasma, pH 7.4
[5] = fatty acid derived agonists, 16 h delayed i.p. glucose tolerance test, 25 nmol/kg
[6] = fatty acid derived agonists, acute i.p. glucose tolerance test, 25 nmol/kg
[7] = once daily 25 nmol/kg bw, 28 days
[8] = acute, peptide 25 nmol/kg i.p. with glucose 18 mmol/kg, Table 4
[9] = following a 2 h delay, 25 nmol/kg
[10] = following a 8 h delay, 25 nmol/kg

Compound: CCCCCCCCCCCCCCCC(=O)N[C@@H](CCC(=O)NCCCC[C@H](NC(=O)[C@H](Cc1c[nH]cn1)NC(=O)[C@H](CO)NC(=O)[C@H](CC(C)C)NC(=O)[C@H](CCCNC(=N)N)NC(=O)[C@@H]1CCCN1C(=O)[C@H](CCCNC(=N)N)NC(=O)[C@@H](N)CCC(N)=O)C(=O)NCC(=O)N1CCC[C@H]1C(=O)N[C@@H](CCSC)C(=O)N1CCC[C@H]1C(=O)N[C@@H](Cc1ccccc1)C(N)=O)C(=O)O [(Lys^8GluPAL)apelin-13-amide]
- Rank order of stability [1]: =1
- Half-life (t1/2) ([1]; NIH Swiss, mouse, plasma, 263 µg/mL, pH 7.4): >24 h
- half-life at 263 µg/mL [1, 4]: > 24 h
- remaining at 4 h, 263 µg/mL [1, 4]: 100%
- Rank order on basis of anti-hyperglycaemic efficacy ([2]; fatty acid derived agonists, 16 h delay): 2
- Blood glucose as percent of glucose-alone control (lower = stronger glucose lowering) [2, 5]: 61% (**)
- Insulin secretion, where glucose alone = 100% [2, 5]: 156% (***)
- Rank order on basis of anti-hyperglycaemic efficacy ([2]; fatty acid derived agonists, acute): 2
- Glucose lowering, where glucose alone = 100% [2, 6]: 85%
- Insulin secretion, where glucose alone = 100% [2, 6]: 110%
- Percentage fat mass ([3]; after 28 days, DEXA analysis): 30.8%
- Insulin sensitivity ([3]; after 28 days, insulin 25 U/kg bw): significantly improved
- Glucose tolerance and plasma insulin excursion in response to an i.p and oral glucose challenge ([3]; after the 28 day treatment period): significantly improved
- HDL-cholesterol levels compared to the lean control and high fat fed mice ([3]; once daily): significantly increased
- Bodyweight reduction [3, 7]: approximately 4%
- Day of study at which bodyweight was significantly decreased [3, 7]: 21 days
- Day of study at which circulating blood glucose began to be significantly reduced and plasma insulin increased [3, 7]: 10 days
- Day of study at which food intake was significantly reduced [3, 7]: 8 days
- LDL-cholesterol levels compared to the high fat fed controls ([3]; once daily, Friedewald equation): significantly lowered
- Plasma triglyceride levels ([3]; once daily, high-fat fed mice): significantly lower

Compound: CSCC[C@H](NC(=O)[C@@H]1CCCN1C(=O)CNC(=O)[C@H](CCCCN)NC(=O)[C@H](Cc1c[nH]cn1)NC(=O)[C@H](CO)NC(=O)[C@H](CC(C)C)NC(=O)[C@H](CCCNC(=N)N)NC(=O)[C@@H]1CCCN1C(=O)[C@H](CCCNC(=N)N)NC(=O)[C@@H]1CCC(=O)N1)C(=O)N1CCC[C@H]1C(=O)N[C@@H](Cc1ccc(O)cc1)C(=O)O [pGlu(Tyr^13)apelin-13, pGlu (Tyr^13)apelin-13]
- Degradation fragment, Peak 1 [1]: (1-5)
- Degradation fragment, Peak 2 [1]: (1-6)
- Degradation fragment, Peak 3 [1]: (1-12)
- Rank order of stability [1]: 4
- half-life at 263 µg/mL [1, 4]: 12.2 h
- remaining at 4 h, 263 µg/mL [1, 4]: 79 ± 0.6%
- Rank order on basis of anti-hyperglycaemic efficacy ([2]; acute, Table 4): 3
- Blood glucose as percent of glucose-alone control (lower = stronger glucose lowering) [2, 8]: 71% (*)
- Insulin secretion, where glucose alone = 100% [2, 8]: 138% (**)
- Rank order on basis of anti-hyperglycaemic efficacy ([2]; following a 2 h delay): 3
- Blood glucose as percent of glucose-alone control (lower = stronger glucose lowering) [2, 9]: 78% (**)
- Insulin secretion, where glucose alone = 100% [2, 9]: 142% (**)
- Rank order on basis of anti-hyperglycaemic efficacy ([2]; following a 8 h delay): 2
- Blood glucose as percent of glucose-alone control (lower = stronger glucose lowering) [2, 10]: 86% (*)
- Insulin secretion, where glucose alone = 100% [2, 10]: 112%

Compound: CSCC[C@H](NC(=O)[C@@H]1CCCN1C(=O)CNC(=O)[C@H](CCCCN)NC(=O)[C@H](Cc1c[nH]cn1)NC(=O)[C@H](CO)NC(=O)[C@H](CC(C)C)NC(=O)[C@H](CCCNC(=N)N)NC(=O)[C@@H]1CCCN1C(=O)[C@H](CCCNC(=N)N)NC(=O)[C@@H]1CCC(=O)N1)C(=O)N1CCC[C@H]1C(=O)N[C@H](C(=O)O)C(C)C [pGlu(Val^13)apelin-13, pGlu (Val^13)apelin-13]
- Degradation fragment, Peak 1 [1]: (1-6)
- Degradation fragment, Peak 2 [1]: (1-12)
- Rank order of stability [1]: 9
- half-life at 263 µg/mL [1, 4]: 9.8 h
- remaining at 4 h, 263 µg/mL [1, 4]: 76.2 ± 1.9%
- Rank order on basis of anti-hyperglycaemic efficacy ([2]; acute, Table 4): 8
- Blood glucose as percent of glucose-alone control (lower = stronger glucose lowering) [2, 8]: 116% (*)
- Insulin secretion, where glucose alone = 100% [2, 8]: 75% (**)
